Data published in patent publication US7807422B2, “Production of flavonoids by recombinant microorganisms” (The Research Foundation of State University of New York, priority 2004, dated 2010).

Assays:
[1] = tested on: A. andraeanum DFR; assay: Biotransformation assay of flavanones with recombinant E. coli harboring Anthurium DFR (flavanone reductase activity); type: cell-based, Anthurium andraeanum; conditions: substrate 0.4 mg/mL, 30° C., 24 hours, HPLC
Procedure: Seed cultures of recombinant E. coli harboring Anthurium DFR were grown in LB with 100 μg/mL ampicillin. After 24 hours, the preinoculum was used to seed a 50-mL main culture which was incubated at 37° C. until A600 reached 0.5. IPTG and flavanone substrates were added at a final concentration of 2 mM and 0.4 mg/mL respectively, and incubation proceeded at 30° C. for 24 hours before harvesting. Flavonoid products in the culture supernatant were extracted twice with an equal volume of ethyl acetate. The organic solvent was collected and evaporated using a rotary evaporator, and the residue was dissolved in water.
The products were analyzed by HPLC using an Agilent HPLC 1100 series instrument with a diode array detector. HPLC was carried out using a reverse phase ZORBAX SB-C18 column (diameter 4.6 mm×150 mm) using an acetonitrile (solvent A) and water (solvent B) gradient at a flow rate of 1 ml/min. The HPLC program conditions used were as follows: 10% to 40% A (0-10 min), 40% to 60% A (10-15 min), 60% A (15-20 min). Absorbance at 280 nm was monitored in all cases. […] The UV maximum for the various flavan-4-ols synthesized were: 276 nm for 2,4-cis-flavan-4-ol; 275 nm for 2,4-trans-flavan-4-ol; 281 nm for 2,4-cis-7-hydroxyflavan-4-ol; and 279 nm for 2,4-trans-7-hydroxyflavan-4-ol.
Besides NAR and ERI, four other commercially available flavanones were tested as substrates using the recombinant A. andraeanum DFR enzyme. The biotransformation assay was chosen for that purpose, since these flavanones cannot be synthesized as radio-isotopomers.

[2] = tested on: Recombinant DFR R. hybrida; assay: In vitro DFR/FNR enzymatic reaction, TLC analysis; type: biochemical, Rosa hybrida; conditions: compound as substrate; pH 6.5, 30° C.
Procedure: (§1) Vector pTrcHis2-TOPO, either empty (control) or harboring the various cDNA sequences, was transformed into E. coli strain TOP10F′ (Invitrogen). Individual colonies were grown overnight in 3-mL Luria-Broth (LB) cultures with 100 μg/mL Ampicillin. The seed culture was used the following day to start a 50-mL main culture with an initial absorbance at 600 nm (A600) of 0.05. The main culture was left to grow at 37° C. until A600 reached 0.5-0.8. At that point, the inducer IPTG (isopropyl β-thiogalactoside) at a final concentration of 2 mM was added and the culture was left to grow for 4 hours at 30° C. Cells were harvested by centrifugation, resuspended in 5 mL of buffer (0.1 M K2HPO4/KH2PO4, pH 6.5), and lysed by either sonication or glass beads.
(§2) In vitro DFR and FNR enzymatic reactions were performed using 186 Bq of radiolabeled substrate and incubation was performed at 30° C. for 30 min−1 hour for DFR tests, and 30 min−2.5 hours for FNR tests. Ethyl acetate extraction was performed (twice) at the end of the incubation period, with 100 μL ethyl acetate. The organic phase was analyzed on a precoated TLC cellulose plate (Merck, Germany). The products, leucoanthocyanins and flavan-4-ols were separated from the respective substrates, dihydroflavonols and flavanones by chromatography in chloroform:acetic acid:water (10:9:1) system. The detection and quantification of radioactivity was performed using Fuji BAS1000 Bio-Imaging Analyzer. Protein content was determined using Lowry procedure with crystalline BSA as a standard. In vitro reaction products were identified by a previously published Rf values from in vitro reactions using heterologously expressed DFR proteins from Malus domestica (Punyasiri, et al., 2004, Arch. Biochem. Biophys., 431:22-30). Using TLC chromatography with chloroform:acetic acid:water (10:9:1), the Rf(×100) values for various flavonoids are DHK: 68; DHQ: 35; DHM: 11; NAR: 93; ERI: 61; LPg: 18; LCy: 8; LDp: 14; Apf: 45; Ltf: 18.
(§3) The in vitro reactions were performed using the optimal conditions (pH 6.5, 30° C.). […] No products were formed when using crude extract from E. coli harboring empty vector. DHQ and DHM were accepted as substrates by all seven recombinant enzymes, however, only the recombinant DFR enzymes derived from A. andraeanum, A. thaliana, I. nil, R. hybrida, and F. ananassa were able to catalyze the formation of LPg (Table 18). […] In addition, no LPg could be detected in assays using DFR from I. purpurea and L. hybrid even when the reaction period was extended and the amount of protein was increased up to 100 μg. In all cases, substrate specificity appeared to be independent of temperature or pH changes.

[3] = biological target: T1, Recombinant DFR A. thaliana (Arabidopsis thaliana, UniProt P51102); assay: In vitro DFR/FNR enzymatic reaction, TLC analysis; type: biochemical; conditions: compound as substrate; pH 6.5, 30° C.
T1 construct: We amplified full-length cDNA of various plant DFR open reading frames by PCR and RT-PCR; made in house; host or cells: E. coli TOP10F′ (crude lysate)
T1 sequence (P51102 1-382): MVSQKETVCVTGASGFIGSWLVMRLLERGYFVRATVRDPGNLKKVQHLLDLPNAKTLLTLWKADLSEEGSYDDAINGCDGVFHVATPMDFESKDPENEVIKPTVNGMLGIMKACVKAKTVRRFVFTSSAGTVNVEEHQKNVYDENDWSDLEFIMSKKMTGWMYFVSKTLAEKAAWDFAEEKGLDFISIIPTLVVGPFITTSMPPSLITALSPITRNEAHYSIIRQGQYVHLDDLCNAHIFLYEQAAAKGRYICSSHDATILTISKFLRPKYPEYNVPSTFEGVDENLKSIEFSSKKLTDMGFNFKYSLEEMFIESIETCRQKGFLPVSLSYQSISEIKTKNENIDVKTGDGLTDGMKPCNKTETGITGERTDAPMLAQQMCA
Procedure: as §1, §2, §3

[4] = tested on: Recombinant DFR F. ananassa; assay: In vitro DFR/FNR enzymatic reaction, TLC analysis; type: biochemical, Fragaria ananassa; conditions: compound as substrate; pH 6.5, 30° C.
Procedure: as §1, §2, §3

[5] = tested on: Recombinant DFR L. hybrid; assay: In vitro DFR/FNR enzymatic reaction, TLC analysis; type: biochemical, Lilium hybrid; conditions: compound as substrate; pH 6.5, 30° C.
Procedure: as §1, §2, §3

[6] = tested on: Recombinant DFR I. nil; assay: In vitro DFR/FNR enzymatic reaction, TLC analysis; type: biochemical, Ipomoea nil; conditions: compound as substrate; pH 6.5, 30° C.
Procedure: as §1, §2, §3

[7] = tested on: Recombinant DFR A. andraeanum; assay: In vitro DFR/FNR enzymatic reaction, TLC analysis; type: biochemical, Anthurium andraeanum; conditions: compound as substrate; pH 6.5, 30° C.
Procedure: as §1, §2, §3

[8] = tested on: Recombinant DFR I. purpurea; assay: In vitro DFR/FNR enzymatic reaction, TLC analysis; type: biochemical, Ipomoea purpurea; conditions: compound as substrate; pH 6.5, 30° C.
Procedure: as §1, §2, §3

[9] = tested on: flavanone biosynthesis in recombinant yeast strain INV-4G; assay: Naringenin production from coumaric acid by INV-4G in the presence of apigenin (feedback inhibition); type: cell-based, S. cerevisiae
Excerpt: Heterologous expression and fermentation. In order to assemble the two different flavone biosynthetic pathways, recombinant INVSc1 carrying plasmid Ycc4c181G was transformed with YC-FSI, YC-FSII or YC-FSII+CPR1 separately, yielding recombinant strains INV-4G+FSI, INV-4G+FSII, and INV-4G+FSII+CPR1. Yeast colonies harboring both plasmids were selected upon growth on SC agar plates lacking leucine and tryptophan (SC-Leu-Trp-). For flavone fermentation purposes, an individual recombinant yeast colony was grown overnight in 10-mL liquid SC-Leu-Trp-containing glucose at 30° C. with shaking. The following day, a portion of this culture was used to seed the main culture of SC-Leu-Trp-containing galactose and raffinose or MA-Leu-Trp-containing galactose and acetate to an Ab600 of 0.4. 0.5 mM of phenylpropanoid acid (cinnamic acid, p-coumaric acid, caffeic acid, ferulic acid) was then added to the main culture, and incubation was carried out at 30° C. with horizontal shaking for a maximum of 92 hours.
Considering that INV-4G+FSI produced more apigenin than INV-4G+FSII+CPR1, we tested the possibility that flavanone biosynthesis is feedback—inhibited by apigenin. For this purpose, recombinant yeast strain carrying only the four flavanone biosynthetic genes (INV-4G) was created by simultaneously inserting YP-4G and empty YCplac22 plasmid. INV-4G was then tested for the ability to generate naringenin from coumaric acid, in the presence of apigenin. […] In the presence of 1 mg/L apigenin, the production of naringenin at stationary phase was reduced by 14%.

[10] = tested on: S. cerevisiae strain INVSC1 carrying plasmid Ycc4c181; assay: Growth of recombinant yeast fed with phenylpropanoid acids; type: cell-based; conditions: preliminary data
Procedure: Yeast Shake Flask Experiment. A single colony of strain INVSC1 carrying plasmid Ycc4c181 was inoculated into 15 ml of SC-Leu minimal medium containing 2% glucose and was left to grow overnight at 30° C. with shaking (preinoculum). The following day, 50 ml induction medium (SC-Leu medium containing 2% galactose) was seeded with medium-free preinoculum to a final absorbance at 600 nm (A600) of 0.4. Cells were then left to grow at 30° C. with vigorous shaking for 4 hours. At that time, 50 μl of a 0.25 M stock solution of substrate (cinnamic acid, p-coumaric acid, caffeic acid or ferulic acid) were added to the culture to a final concentration of 0.25 mM. The culture was left to grow at 30° C. for a total of 65 hours with horizontal shaking. During that time, the culture was supplemented with another 50 μl of substrate stock every 12 hours for a total of 4 times.
Cinnamic acid was provided in a total of 5 increments to the culture. […] In all cases, after 65 hours of fermentation, only trace amounts of cinnamic acid were detected in the culture.
Flavanone compounds were identified by comparison of the retention time and UV profile with those of authentic standards and literature data.

[11] = tested on: E. coli BL21 Star; assay: Effect of phenylpropanoid acids on E. coli growth (growth curves); type: cell-based
Procedure: Growth Curves. In order to investigate the effect of Phenylpropanoid acids on E. coli growth, E. coli BL21 Star was inoculated in 3 ml M9 liquid minimum medium and was left to grow at 37° C. overnight (preinoculum). The following day, 1 ml from the preinoculum was transferred to either 50 ml M9 minimal or Luria-Bertani (LB) rich liquid medium and p-coumaric acid, caffeic acid or cinnamic acid were added in the culture at different final concentrations (0 mM, 0.2 mM, 0.5 mM, 1 mM and 2 mM). Cell growth was monitored by measuring the absorbance at 600 nm (A600).
Phenylpropanoid acids reduce E. coli growth. We tested the effect of both p-coumaric acid and cinnamic acid on E. coli growth by incubating BL21 Star in M9 minimum medium and LB rich medium in the presence of different concentration of these compounds (0 mM, 0.05 mM, 0.1 mM, 0.15 mM, 0.2 mM, 1 mM, and 2 mM). […] For example, in the case of p-coumaric acid in […], the growth rate dropped from 0.28 h^−1 (control, 0 mM) to 0.18 h^−1 (2 mM). Similarly, for cinnamic acid the growth rate dropped from 0.27 h^−1 (control, 0 mM) to 0.17 h^−1 (2 mM) in M9 minimal medium.

[12] = tested on: E. coli JM109 carrying plasmid pK184; assay: Effect of naringenin on E. coli growth; type: cell-based
Procedure: E. coli shake-flask experiments. The identification of compounds produced from recombinant E. coli strain JM109 carrying plasmid pDGFA184 was done in a similar way to what has already been described in the literature Hwang et al., 2003, Appl. Environ Microbiol., 69:2699-2706). More specifically, 3 ml of Luria-Broth rich medium containing 50 ug/ml kanamycin was inoculated with the recombinant strain and was incubated at 37° C. with vigorous shaking. The next day, 200 ml of LB containing 50 μg/ml kanamycin was inoculated with 1 ml of overnight culture and the culture was incubated at 37° C. with vigorous shaking at 300 rpm to an OD600 of approximately 0.6. Next, the inducer IPTG was added to the culture to a final concentration of 1 mM. In order to avoid the formation of inclusion bodies, after the addition of the inducer the culture was incubated at room temperature with vigorous shaking overnight. Next day the cells were harvested by centrifugation and washed twice with M9 minimal medium. The pellets were then resuspended in 200 ml M9 minimal medium containing 50 μg/ml kanamycin, 1 mM IPTG and various concentrations of naringenin. In order to measure growth curves, the cultures were left to grow at room temperature with vigorous shaking until late stationary phase was reached. For flavonoid extraction experiments, the cultures were left to grow at room temperature for 65 h, again with horizontal vigorous shaking.
We tested the effect of naringenin on E. coli growth by incubating cultures of JM109 carrying plasmid pK184 in M9 minimal medium (50 μg/ml kanamycin) in the presence of different concentrations of naringenin (0.1 mM, 0.3 mM, 0.5 mM and 1 mM).

Specific activity [3] [pkatal/mg] | SMILES | Specific activity [2] [pkatal/mg] | Specific activity [4] [pkatal/mg] | Specific activity [5] [pkatal/mg] | Specific activity [6] [pkatal/mg] | Specific activity [7] [pkatal/mg] | Specific activity [8] [pkatal/mg] | other results
 | COc1cc(OC)c2c(c1)OC(c1ccccc1)CC2=O (stereo not drawn) [5,7-dimethoxyflavanone] |  |  |  |  |  |  | reduction to the corresponding flavan-4-ol [1]: not
0.002 | O=C1c2c(O)cc(O)cc2O[C@H](c2ccc(O)cc2)[C@H]1O [DHK, dihydrokaempferol] | 0.4 | 14 | 0 | 0.3 | 21 | 0 | 
1.0 | O=C1c2c(O)cc(O)cc2O[C@H](c2cc(O)c(O)c(O)c2)[C@H]1O [DHM, dihydromyricetin] | 1.3 | 1.4 | 1.2 | 1.5 | 1.4 | 1.5 | 
1.3 | O=C1c2c(O)cc(O)cc2O[C@H](c2ccc(O)c(O)c2)[C@H]1O [DHQ, dihydroquercetin] | 1.0 | 1.2 | 1.3 | 1.3 | 1.4 | 1.2 | 
0.6 | O=C1C[C@@H](c2ccc(O)c(O)c2)Oc2cc(O)cc(O)c21 [ERI, eriodictyol] | 0.7 | 0.6 | 0.6 | 0.6 | 0.8 | 0.6 | 
 | O=c1cc(-c2ccc(O)cc2)oc2cc(O)cc(O)c12 [apigenin] |  |  |  |  |  |  | production of naringenin at stationary phase reduced by ([9]; 1 mg/L apigenin): 14%; naringenin production decline ([9]; 3 mg/L apigenin): approximately 60%; naringenin production decline ([9]; 10 mg/L apigenin): ~85%
 | O=C(O)C=Cc1ccccc1 [cinnamic acid] |  |  |  |  |  |  | concentration in the medium resulting in significant cell growth arrest [10]: above 0.5 mM; growth rate ([11]; 2 mM cinnamic acid, M9 minimal medium): 0.17 h⁻¹
 | O=C1CC(c2ccccc2)Oc2ccccc21 (stereo not drawn) [flavanone] |  |  |  |  |  |  | reduction to the corresponding flavan-4-ol [1]: able to reduce
 | COc1ccc([C@@H]2CC(=O)c3c(O)cc(O)cc3O2)cc1O [hesperetin] |  |  |  |  |  |  | reduction to the corresponding flavan-4-ol [1]: not
 | O=C(O)/C=C/c1ccc(O)cc1 [p-coumaric acid] |  |  |  |  |  |  | growth rate ([11]; 2 mM p-coumaric acid, M9 rich medium): 0.18 h⁻¹

SMILES | Specific activity [3] [pkatal/mg] | Specific activity [2] [pkatal/mg] | Specific activity [4] [pkatal/mg] | Specific activity [5] [pkatal/mg] | Specific activity [6] [pkatal/mg] | Specific activity [7] [pkatal/mg] | Specific activity [8] [pkatal/mg] | other results
O=C1C[C@@H](c2ccc(O)cc2)Oc2cc(O)cc(O)c21 [naringenin] | 0 | 0.4 | 0.5 | 0 | 0.3 | 0.7 | 0 | final dry cell weight concentration ([12]; 1 mM naringenin in minimal medium, after 13 h cell growth): 0.492 mg/mL; reduction in the final dry cell weight ([12]; 1 mM naringenin vs control, 13 h): 16%; maximum specific growth rate ([12]; 1 mM naringenin, M9 minimal medium): 0.14 h⁻¹; OD600 (final cell mass) ([12]; 1 mM naringenin, after 13 h of growth): 1.0
